Results published in ChEMBL document CHEMBL1201862, “PubChem BioAssay data set” (2004).
Structures can show the parent of a compound that is named as a salt. Active and inactive are the calls of the source. For most assays here, no stated cut-off is given here; in the data, active = IC50 of 5 µM or less and inactive = more.

What was measured:
[1] = HepG2 cell cytotoxicity, dose response, cytotoxicity control, plate reader, dry powder samples (AID 1159569); assay type: functional, cell-based;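 further: inhibitor potency with signal falling toward the positive control level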
[2] = P. falciparum ATP4 D1247Y mutant growth inhibitors, dose response, NITD609-resistant line, SYBR Green, dry powder (AID 1159571); assay type: functional, cell-based;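 further: parasites synchronized at ring stage by sorbitol before testing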
[3] = P. falciparum 3D7-ScDHODH growth inhibitors, dose response, SYBR Green, dry powder samples (AID 1159570); assay type: functional, cell-based;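 further: parasite growth measured after 72 hours of compound exposure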
[4] = P. falciparum Dd2 growth inhibitors, dose response, SYBR Green, dry powder samples (AID 1159566); assay type: functional, cell-based;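 further: potency for growth inhibition with lower SYBR green DNA signal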
[5] = P. falciparum Dd2 growth inhibitors, dose response, SYBR Green, cherry-picked samples (AID 1159567); assay type: functional, cell-based
[6] = P. falciparum Dd2 growth inhibitors, dose response, SYBR Green, dry powder samples, set 9 (AID 1159568); assay type: functional, cell-based
[7] = HepG2 cell cytotoxicity, dose response, cytotoxicity control, cherry-picked samples (AID 1159577); assay type: functional, cell-based
[8] = CellTiter-Glo luminescent dose response of DLD-1 viability loss (AID 1117352); assay type: functional
[9] = Concentration-dependent survival of SW480 colon cancer line, luminescence detection with CellTiter-Glo, half-maximal inhibitory concentration (AID 1117338); assay type: functional
[10] = RKO cell viability reduction, dose response, CellTiter-Glo luminescence (AID 1117322); assay type: functional
[11] = HCT116 cell viability decrease, GSK3B pretreatment – CellTiter-Glo, IC50, dose response (AID 1117339); assay type: functional; conditions: HCT-116
[12] = cytotoxicity toward HT-29 cells – cell-based, CellTiter-Glo luminescence, IC50, dose response (AID 1117330); assay type: functional
[13] = cytotoxicity toward Colo320 cells – cell-based, CellTiter-Glo luminescence, IC50, dose response (AID 1117334); assay type: functional; conditions: COLO 320
[14] = cytotoxicity toward HCT116 cells – cell-based, CellTiter-Glo luminescence, IC50, dose response (AID 1117332); assay type: functional; conditions: HCT-116
[15] = SNU-C1 cell viability reduction, dose response, CellTiter-Glo luminescence (AID 1117323); assay type: functional, cell-based
[16] = Glucagon-like peptide 1 release potency, NCI-H716 cell line, dose-response, half-maximal inhibitory concentration (AID 1117344); assay type: functional, cell-based
[17] = half-maximal inhibitory concentration for glucagon-like peptide-1 release, STC-1 cell line, dose-response (AID 1117345); assay type: functional, cell-based

For C[C@@H]1CN([C@@H](C)CO)C(=O)c2ccccc2-c2ccccc2CO[C@H]1CN(C)C(=O)Nc1cccc(Cl)c1Cl, the AC50 [1] was > 100 µM (inactive), the AC50 [2] was 0.437 µM (active) and the AC50 [3] was 0.0978 µM (active). For the same molecule, the AC50 [4] was 0.107 µM (active) and the AC50 [5] was 0.418 µM (active).

For Cc1ccc(S(=O)(=O)N(C)C[C@H]2Oc3cc(C#CC4CCCC4)ccc3S(=O)(=O)N([C@@H](C)CO)C[C@H]2C)cc1, the AC50 [6] was 3.42 µM (active).

In the case of C[C@@H]1CN([C@H](C)CO)S(=O)(=O)c2ccc(C#Cc3ccncc3)cc2O[C@H]1CN(C)S(=O)(=O)c1ccc(F)cc1, the AC50 [1] is reported as 3.66 µM (active), the AC50 [2] is reported as 1.17 µM (active) and the AC50 [7] is reported as > 39 µM (inactive). For the same molecule, the AC50 [3] was 0.682 µM (active), the AC50 [4] was 1.14 µM (active) and the AC50 [5] was 2.17 µM (active).

For Clc1ccc(C(Cn2ccnc2)OCc2ccc(Sc3ccccc3)cc2)c(Cl)c1 (configuration not stated) [FENTICONAZOLE], the IC50 [8] was 7.76 µM (inactive), the IC50 [9] was 7.44 µM (inactive) and the IC50 [10] was 6.14 µM (inactive). The IC50 [11] was 6.77 µM (inactive), the IC50 [12] was > 20 µM (inactive) and the IC50 [13] was 7.06 µM (inactive). For the same molecule, the IC50 [14] was 7.71 µM (inactive).

With O=C(NC1CCN(CCc2c[nH]c3ccccc23)CC1)c1ccccc1 [INDORAMIN HYDROCHLORIDE] the IC50 [8] was > 20 µM (inactive), the IC50 [9] was > 20 µM (inactive) and the IC50 [10] was > 20 µM (inactive). The IC50 [11] was > 20 µM (inactive), the IC50 [12] was > 20 µM (inactive) and the IC50 [13] was > 20 µM (inactive). For the same molecule, the IC50 [15] was > 20 µM (inactive).

For OC1(c2ccc(Cl)c(C(F)(F)F)c2)CCN(CCCC(c2ccc(F)cc2)c2ccc(F)cc2)CC1 [PENFLURIDOL], the IC50 [8] was 1.14 µM (active), the IC50 [10] was 0.971 µM (active) and the IC50 [12] was 0.946 µM (active). For the same molecule, the IC50 [16] was 8.45 µM (inactive), the IC50 [17] was > 40 µM (inactive) and the IC50 [13] was 0.962 µM (active). The IC50 [15] was 0.168 µM (active) and the IC50 [14] was 1.85 µM (active).

For CN1CCN(c2cc3c(nn2)Oc2ccccc2N3C)CC1 [PIPOFEZINE], the IC50 [8] was > 20 µM (inactive), the IC50 [9] was > 20 µM (inactive) and the IC50 [10] was > 20 µM (inactive). The IC50 [11] was > 20 µM (inactive), the IC50 [12] was > 20 µM (inactive) and the IC50 [13] was > 20 µM (inactive). For the same molecule, the IC50 [15] was > 20 µM (inactive) and the IC50 [14] was > 20 µM (inactive).
